Data published in patent US20100267638A1, “EXOSITE-DIRECTED THROMBIN INHIBITORS” (CLEVELAND STATE UNIVERSITY, priority 2003, published 2010).
Values joined by “and” are separate entries in the source; they are usually repeats but may differ in a detail not shown here. Equal entries are not always repeated. “Also recorded” adds a separate entry of the source. No end group written: not given here.

Legend:
[1] = molecular target: T1, active-site-immobilized thrombin (Homo sapiens, UniProt P00734); assay: Direct binding of the peptides to thrombin-agarose (chromatography); settings: 400 μg peptide, 2.5 ml column, elution 2M NaCl
T1 construct: Factor Xa cleaves prothrombin to form thrombin; purchased Haematologic Technologies Inc. (Essex Junction, Vt.)
Procedure: Direct binding of the peptides to thrombin. Thrombin was immobilized onto agarose through the active site as described. Peptide solutions of HC1-HC5 (SEQ ID NO. 2-6, respectively), D13R (SEQ ID NO. 21), DYDYQ (SEQ ID NO. 11), and P15H (SEQ ID NO. 22) were dissolved in water to a given concentration and then diluted in 20 mM Hepes, 0.1 M NaCl, pH 7.4 in a manner that 400 μg was contained in each starting solution. In control experiments it was determined that the maximum amount of peptide that could be retained by the thrombin-agarose column was 400 μg. Since some of the peptides contain aromatic amino acid residues, their concentration was also measured by optical density.
Mass spectrometry instruments and conditions. The identity of all peptides found in the flow-through or the elution of the thrombin-agarose column was verified by mass spectrometry. Since the peptides were in a buffer solution, we used Liquid Chromatography/Mass Spectrometry (LC/MS) for their identification. In this procedure peptides are first separated from the salt content of the buffer using an HPLC system (HP 1100, HPLC gradient system, Agilent Technologies, Palo Alto Calif.) with a C18 column (1 mm×15 cm, GraceVydac, Hesperia Calif.) with buffers A (0.3% acetic acid in water) and B (0.3% acetic acid in acetonitrile). The elution of the column was monitored with a Micromass Quatro II ESI-Triple Quadrupole Mass Spectrometer (Waters, Milford Mass.). The data were collected using a Compaq Professional Workstation AP200 (Hewlett-Packard, Palo Alto Calif.) and analyzed by the software MassLynx v3.3 (Waters, Milford Mass.).
Direct interaction of hirudin-like peptides from factor tor Va heavy chain With thrombin-agarose. To ascertain that the peptides of interest are inhibitory of prothrombinase activity and contain a binding site for thrombin, the interaction of all peptides with active-site-immobilized thrombin was studied in chromatographic experiments and is shown in FIG. 5. In FIG. 5, small scale chromatography of hirudin-like peptides was performed on a 2.5 ml thrombin-agarose. Each run represents 400 μg of peptide. This amount of peptide was determined to saturate the specific sites of thrombin of the column used (2.5 ml). Elution was performed with 2M NaCl and was started at the point indicated by the arrow (fraction #30). The presence of the peptides in the corresponding fractions was monitored by absorbance at 280 nm (shown on the y axis) and by LC/MS (inset). […] Specifically, these peptides were treated similarly to all other peptides and similar fractions were collected. Aliquots from fractions #7 and #35 from each separate experiment were submitted to LC/MS analysis as described herein (depicted by the hatched arrows at the bottom of the chromatogram). The results from tube #7 from three chromatograms are depicted. The data are presented as % intensity of the signal as a function of the mass of the peptide divided by the charge (m/z). FIG. 5A, HC1 (Mr calculated 1268); FIG. 5B, HC2 (Mr calculated 1132); FIG. 5C, HC5 (Mr calculated 1053). The spectrum of HC1 has two major peaks: at 635.5 and at 424, and one minor peak at 1270 (1268+1). The peak at 635.5 represents the peptide (mass/charge) with two positive charges ([…]) i.e. [(1268+2=1270)]/2=635 whereas, the peak at 424 represents HC1 with three positive charges ([…]) i.e. [(1268+3=1271)]/3=424. […] HC5 spectrum has two major peaks: one at 528 and one at 352. The peak at 528 represents the peptide with two positive charges ([…]) i.e. [(1053+2=1055)]/2=527.5 while, the other peak represents HC5 with three positive charges ([M+31-]^2+) i.e. [(1053+3=1056)]/3=352. The minor peak at 1054 represents the peptide with one charge. It is noteworthy, that in gas phase the number of protons attached to each peptide depends on the number (quantity) of basic residues contained in each peptide. […] Thus, HC1 and HC5 are more likely to bind two or three protons than HC2. […]

prothrombinase [2] = molecular target: T2, prothrombinase (Homo sapiens, UniProt P00734); assay: Assay measuring thrombin formation (prothrombinase inhibition by peptides, DAPA fluorescence); type: biochemical
T2 construct: purchased Haematologic Technologies Inc. (Essex Junction, Vt.)
Procedure: Assay measuring thrombin formation. The formation of thrombin was analyzed using the fluorescent thrombin inhibitor DAPA as described using a Perkin Elmer LS-50B Luminescence Spectrometer (Perkin-Elmer LLC, Norwalk Conn.) with λex=280 nm, λem=550 nm and a 500 nm long pass filter in the emission beam (Schott KV-500). […] In all cases peptides were preincubated with factor tor Va prior to the assay as described in the legend to the figures. The final concentration of factor tor Va in the mixture was 4 nM with factor Xa at 10 nM, prothrombin at 350 nM, DAPA at 700 nM, in the presence of PCPS vesicles (10 μM). The initial rate of thrombin formation (nM IIa·min^−1) was calculated as described during the initial 5-10 sec of the reaction. To verify if the peptides have any effect on the active-site of thrombin, control experiments were performed as follows: a given peptide (at 100 μM) was incubated in the assay buffer containing DAPA (700 nM); the base line was monitored for 30 sec; thrombin (350 nM) was then added to the mixture and the fluorescent intensity resulting from the complexation of DAPA with the active site of thrombin was monitored for 60 sec. The slope of the reaction measuring thrombin formation in the presence of a given peptide during the first 5 sec was calculated and compared to the slope of a reaction obtained in the absence of peptide. It is noteworthy that under the conditions employed the thrombin-DAPA interaction occurred fast and the calculated slope of the reaction was sensitive to all parameters used. […] All experiments were performed in triplicates or as indicated. The concentration of each peptide given in the figures and figure legends is their final concentration in the assay. […] In some cases the data were also analyzed and plotted using DeltaGraph (DeltaPoint, Monterey, Calif.).
Specifically, peptides were incubated with factor tor Va as described herein at a fixed concentration (100 μM). The percent of factor tor Va cofactor activity was calculated by comparing the activity of prothrombinase in the presence of a given peptide to the activity of prothrombinase determined in a control reaction in the absence of peptide and in the presence of factor Xa. […] The control peptide represents a pentadecapeptide from the middle portion of factor tor Va heavy chain (P15H) (SEQ ID NO. 22). […] All other peptides from region 680-709 had no significant effect on prothrombinase activity.
HC3 represents amino acid sequence 690-699 of factor tor Va heavy chain; HC4 contains the sequence 695-704 of human factor tor Va heavy chain; P15H represents amino acid sequence 337-351 from the middle portion of human factor tor Va heavy chain. […] The concentration of each peptide given on the x axis represents its final concentration in the prothrombinase mixture. […] Thus, both peptides show similar inhibitory potential.

[3] = molecular target: T3, [OG488]-EGR-hXa-human factor tor Va (Homo sapiens, UniProt P00742); assay: Fluorescence anisotropy of preformed membrane-bound [OG488]-EGR-hXa-factor Va complex; type: binding; settings: up to 300 μM peptide
T3 construct: purchased Haematologic Technologies Inc. (Essex Junction, Vt.)
Procedure: Fluorescence Anisotropy measurements. Fluorescence anisotropy of [OG488]-EGR-hXa was measured using a Perkin Elmer LS-50B Luminescence Spectrometer in L-format as recently described. Anisotropy measurements were performed in a quartz cuvette under constant stirring (low) with λex=490 nm, λem=520 nm with a long pass filter (Schott KV-520) in the emission beam. […] The concentration of peptide given in each graph is the final concentration of the peptide in the assay mixture. […] In some cases the data were also plotted using DeltaGraph (DeltaPoint, Monterey, Calif.).
HC3 and HC4 were also tested for their ability to interfere with the fluorescence anisotropy of a preformed complex composed of membrane-bound [OG488]-EGR-hXa-human factor tor Va as described. […] The peptides must thus impair another function of the cofactor within prothrombinase.

prothrombinase [4] = assay: Prothrombinase assay using purified reagents and chromogenic substrate (cofactor activity of recombinant factor Va species); settings: activated with RVV-V activator or factor Xa
[5] = system: factor V deficient plasma; assay: Clotting activity of recombinant factor V molecules
Procedure: Determination of factor V/tor Va clotting activity of the recombinant molecules. Cofactor activity of wild type and mutant molecules was measured in a clotting assay using factor V deficient plasma prior and after activation by thrombin (15 min, 37° C.) and RVV-V activator (2 hr, 37° C.) as described. The values were standardized to the percentage of control. A linear semi-log graph was constructed using known concentrations of purified factor V (U/ml as a function of clotting time). The assay endpoint was determined by visualization of the fibrin clot. The activity of the factor VNa solution (U/ml) was determined by extrapolation from the graph. The concentration of the recombinant molecules was determined by a recently described ELISA. Finally, the numbers were combined to obtain the specific activity of the recombinant factor V solutions (U/mg).

T3 sequence (P00742 41-179 limits assumed): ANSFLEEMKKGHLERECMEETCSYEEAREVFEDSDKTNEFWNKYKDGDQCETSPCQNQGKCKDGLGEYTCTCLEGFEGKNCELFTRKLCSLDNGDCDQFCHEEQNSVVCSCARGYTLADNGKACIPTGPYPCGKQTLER
T3 sequence (P00742 235-488 limits assumed): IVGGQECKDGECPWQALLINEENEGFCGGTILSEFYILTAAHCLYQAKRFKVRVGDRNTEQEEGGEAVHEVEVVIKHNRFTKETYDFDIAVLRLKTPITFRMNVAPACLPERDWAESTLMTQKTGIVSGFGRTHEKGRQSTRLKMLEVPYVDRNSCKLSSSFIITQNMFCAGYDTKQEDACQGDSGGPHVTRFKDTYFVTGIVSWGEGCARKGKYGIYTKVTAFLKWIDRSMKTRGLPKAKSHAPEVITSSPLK

Row | Ki (prothrombinase [2]; calculated from IC50=Ki(1+S0/Km), Km 0.4 μM, S0 350 nM prothrombin, read-out: Ki of prothrombinase inhibition) | IC50 (prothrombinase [2]; factor Va 4 nM, factor Xa 10 nM, prothrombin 350 nM, PCPS 10 μM, peptide preincubated with factor Va) | type of inhibition of prothrombinase with respect to prothrombin (prothrombinase [2]; kinetic analyses, increasing prothrombin and peptide) | Substance | interaction with immobilized thrombin (thrombin-agarose) [1] | effect on prothrombinase / factor Va cofactor activity at fixed concentration (prothrombinase [2]; peptide 100 μM) | interference with binding of factor Va to [OG488]-EGR-hXa (anisotropy) [3] | times less cofactor activity than wild type molecule activated under similar conditions (prothrombinase [4]) [times] | ability to promote clotting [5] | Activity ([5]; factor V species at 2.5 nM) [U/ml] | Specific activity ([5]; factor V species at 2.5 nM) [U/mg] | clotting time ([5]; factor V species at 2.5 nM) [s]
1 | 6.3 µM and ~6.3 µM | 12 µM and ~12 µM | competitive inhibitors | EESDADYDYQ [HC3] | eluted from the column with high-salt buffer; also recorded: interact with immobilized thrombin | inhibited prothrombinase; also recorded: complete inhibition | No significant decrease; also recorded: unable to interfere with the binding of factor tor Va | – | – | – | – | –
2 | – | – | – | Factor VaRVV^2K2F: quadruple mutant activated with RVV-V activator | – | – | – | ~22 | unable to promote clotting | 0.002 | 2.4 | 73.1 ± 4
